Where two headings read alike, the source gives them in different places.
Experiments:
[1] = molecular target: T1, ROCK1 (Homo sapiens, UniProt Q13464); assay: Rho kinase inhibition assay (IMAP fluorescence polarization), ROCK1; format: biochemical;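 further: kinase reaction run 60 min at room temperature, then phosphorylated substrate captured on IMAP beads for 30 min, with fluorescence polarization read in mP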
T1 construct: purchased Upstate/Chemicon 14-601
Protocol: (§1) Following the pre-incubation, 10 μM ATP was added to initiate the reaction. After 60 minutes at room temperature, Molecular Devices IMAP™ binding solution was added to bind phosphorylated substrate. After 30 minutes of incubation in the presence of the IMAP™ beads, the fluorescence polarization was read and the ratio was reported as mP. IC50 values for compounds and EC50 values for ATP were calculated using the Prism software from Graphpad.

[2] = molecular target: T2, ROCK2 (Homo sapiens, UniProt O75116); assay: Rho kinase inhibition assay (IMAP fluorescence polarization), ROCK2; format: biochemical;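 further: kinase reaction started with 10 µM ATP and run 60 min at room temperature, then phosphorylated substrate captured on IMAP beads for 30 min and fluorescence polarization read in mP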
T2 construct: purchased Upstate/Chemicon 14-451
T2 sequence (O75116 11-552 limits assumed): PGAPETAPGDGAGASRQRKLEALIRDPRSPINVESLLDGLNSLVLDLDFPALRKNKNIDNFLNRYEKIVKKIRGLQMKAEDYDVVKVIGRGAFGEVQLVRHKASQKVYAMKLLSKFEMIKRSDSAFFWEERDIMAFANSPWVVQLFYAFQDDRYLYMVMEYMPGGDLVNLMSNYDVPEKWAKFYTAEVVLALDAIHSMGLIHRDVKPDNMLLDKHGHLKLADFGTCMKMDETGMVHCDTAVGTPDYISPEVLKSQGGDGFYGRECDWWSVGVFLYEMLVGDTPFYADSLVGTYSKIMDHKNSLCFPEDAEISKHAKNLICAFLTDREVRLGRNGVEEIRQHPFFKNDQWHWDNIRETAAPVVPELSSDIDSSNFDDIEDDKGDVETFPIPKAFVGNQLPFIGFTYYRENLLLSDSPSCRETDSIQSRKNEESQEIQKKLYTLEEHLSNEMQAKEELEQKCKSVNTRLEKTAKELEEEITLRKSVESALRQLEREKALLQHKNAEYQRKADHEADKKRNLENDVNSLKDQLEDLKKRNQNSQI
Protocol: as §1

[3] = test system: human neutrophils; assay: Human neutrophil chemotaxis induced by fMLP (modified Boyden chamber); format: cell-based
How it was run: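 Neutrophils from healthy volunteers' blood, isolated by Ficoll-paque centrifugation, dextran sedimentation and hypotonic red-cell lysis. Migration measured in a modified Boyden chamber (3 μm polycarbonate membrane) toward 1 μM fMLP for 1 h at 37° C., 5% CO2. Compounds tested in dose response.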

[4] = test system: ova-sensitized, ova-challenged mice; assay: Mouse ovalbumin sensitization model, in vivo anti-inflammatory activity (BALF eosinophils and cytokines); details: for Airway eosinophil infiltration (eosinophils per ml of BALF): dosed orally to day 31, anti-inflammatory dosing paradigm, FIG. 4
Protocol: Male BALB/c mice were ordered from Charles River Laboratories (Raleigh, N.C.). The animals were approximately 19 to 21 grams at time of receipt. Upon arrival, the animals were randomized into groups of five males per cage and assigned to a dosing group. Animals were quarantined for 7 days under test conditions. They were observed daily for general health status and ability to adapt to the water bottles. Animals were sensitized on day 0 and 14 of study by an intraperitoneal injection with 20 μg of ovalbumin (ova) and 2.0 mg aluminum hydroxide (alum) which initiates the development of a specific T-helper (Th) cells type 2 resulting in asthmatic animals (denoted as Ova in the figures). One group of animals received an injection of saline to use as control animals (denoted as normal in the figures). […] Aerosol challenge consists of using an Aerogen Aeroneb nebulizer and controller with a particle size of 4-6 μm mass median aerodynamic diameter (MMAD) with a distribution of 400 μl per minute. This aerosol challenge is necessary to target the Th2-driven allergic inflammation in the lower airways.
The anti-inflammatory dosing paradigm (FIG. 3) was utilized to evaluate the anti-inflammatory effects of experimental compounds. […] On day 32 of the experiment, after measurement of airway hyperreactivity, BALF was collected and all animals were anesthetized, bled and euthanized.
Bronchoalveolar lavage fluid (BALF) was collected by infusing 3.0 ml of saline with 10% fetal calf serum into the lungs via the trachea and then withdrawing the fluid. The total amount of cells/ml of BALF fluid was determined via manual cell count on hemocytometer. The BALF was centrifuged, supernatant removed and analyzed for cytokine concentrations as described below, and cell pellet reconstituted in 500 μL of fluid. Cytospin slides were prepared from the cell pellet using 100 μL of fluid and spinning samples for 5 minutes at 5000 rpms in a cytospin centrifuge. Following Hema3 stain, relative percentages of individual leukocytes were determined on a 200 cell count for each sample. The final concentration of individual leukocyte cell types per ml of BALF was determined by multiplication of the relative percentage of individual leukocytes with the total amount of cells/ml of BALF fluid.
The concentrations of cytokines in the BALF samples were determined using commercially available Bio-plex kits (Bio-Rad) for the detection of mouse IL-5, IL-13, and Eotaxin. The analysis of cytokine levels was measured using the Bio-Plex 200 (Bio-Rad) system according to the manufacturer's instructions.

[5] = test system: ova-sensitized, ova-challenged mice; assay: Prevention of airway hyperreactivity (Penh, methacholine) in mouse ovalbumin sensitization model; format: in vivo; details: for log10AUC (Penh): 15 μmol/kg/oral, days 27 to 31; for airway hyperreactivity to methacholine dosed on Day 32: oral 15 μMol/kg once a day during days 27 to 31
Protocol: The anti-inflammatory dosing paradigm consists of dosing the animals once a day starting on day 27 and finishing on either day 30 or 31 (1 hr prior to the aerosolized ovalbumin challenges on days 28 to 30) but not on day 32 when hyperreactivity evaluation occurs. […] Exposure to the methacholine doses consisted of a 3 minute period during which a nebulizer was aerosolizing the methacholine and an additional 3 minute period following the cessation of nebulization. […] Enhanced pause (Penh), a unitless index of airway hyperreactivity, is derived from the expiratory side of the respiratory waveform measured via the plethysmograph and is used as an indirect measure of airway resistance and hyperreactivity. […] Following the methacholine dose response, BALF was collected and all animals were anesthetized, bled and euthanized. […] The Penh value at each of the dose levels of methacholine represents the 6-minute average response. Change from baseline (CFB) in Penh was calculated at each methacholine dose and the area under the curve (AUC) for these CFB values was calculated using the trapezoidal rule. This same approach was applied for each mouse across multiple experiments. […] Data from equal experimental conditions across experiments performed on different days were pooled for statistical analysis and data reporting. […] A random intercept for each experiment was assumed to account for possible similarities of the results obtained from a given experiment (i.e., as a “blocking effect”). […] For FIG. 9, linear AUC values from compound treated mice were reported as a percent of linear AUC values from vehicle-treated ovalbumin-sensitized/ovalbumin-challenged (asthmatic) mice.

[6] = test system: human monocytes; assay: Human monocyte cytokine secretion assay (LPS-stimulated); format: cell-based; details: average percent of stimulated IL-1β secretion from human monocytes at 10 μM of test compound
Protocol: Peripheral blood from healthy human volunteers was collected and the monocytes isolated via Ficoll-paque density centrifugation. […] The cells were allowed to pre-incubate with test compound at the indicated concentration for 30 minutes (37° C., 5% CO2, humidified air); after which the supernatant was removed and media containing compound and 1 ng/mL LPS was added. Cells were allowed to incubate with compounds and LPS for 4 hours at 37° C. after which the supernatant was removed and stored at −80° C. Cytokine concentrations in the supernatant were determined using commercially available Bio-Rad Bio-plex™ kits according the manufacturer's instructions.

[7] = test system: LPS-challenged mice; assay: LPS-induced neutrophilia and cytokine production assay; format: in vivo, mouse; details: intratracheal administration; FIG. 11B
Protocol: Male BALB/c mice, approximately 19 to 21 grams, were ordered from Charles River Laboratories (Raleigh, N.C.). All animals were challenged with aerosolized LPS (10 μg/ml) for 25 minutes on study day 0. LPS aerosol was generated using an Aerogen Aeroneb nebulizer and controller providing a flow of 400 μl/min and a particle size of 2-4 μm MMAD. Rolipram was administered i.p at 20 mg/kg. […] Four hours following LPS challenge, BALF was collected using a total of 3 ml of 0.9% sodium chloride containing 10% fetal calf serum. Total cell counts were determined using the Coulter Counter. For differential evaluations, BALF was centrifuged and cytospin slides prepared and stained with Hema3 stain. Manual leukocyte counts were then completed on 200 cells. The final concentration of individual leukocyte cell types per ml of BALF was determined by multiplication of the relative percentage of individual leukocytes with the total amount of cells/ml of BALF fluid. The concentration of IL-1β in the BALF samples was determined using commercially available Bio-plex kits (Bio-Rad). The analysis of cytokine levels was measured using the Bio-Plex 200 (Bio-Rad) system according to the manufacturer's instructions.

[8] = test system: A-10 rat thoracic aorta cells; assay: PDGF-stimulated smooth muscle cell proliferation assay (BrdU incorporation); format: cell-based; details: for Percent of PDGF Induced Proliferation at 1 μM Avg / Percent of PDGF Induced Proliferation at 10 μM Avg: A-10 cells, 10 ng/mL PDGF, BrdU incorporation, percent of total challenge-stimulated proliferation; for Percent of PDGF Induced Proliferation at 1 μM Avg: 1 μM test compound; for Percent of PDGF Induced Proliferation at 10 μM Avg: 10 μM test compound;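 on all read-outs here: cells kept in serum-free medium, BrdU allowed to incorporate for 24 h, then incorporated label detected fluorometrically with an anti-BrdU antibody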
Protocol: Effects on cell proliferation were measured using a bromodeoxyuridine (BrdU) incorporation assay. […] Serum free media containing 01% BSA was added to the cells. 24 hours later the media was removed and replaced with warmed serum free media. […] Proliferation was then monitored using the BrdU Cell Proliferation Assay, HTS (Calbiochem cat. #t HTS01). BrdU was allowed to incorporate into cells for 24 hours prior to the addition of fixative/denaturing solution and the fluorometric detection of incorporated BrdU using a BrdU antibody as per manufacturer's directions. Data are reported as a percent of the PDGF-stimulated BrdU incorporation.

[9] = molecular target: T3, Akt3 human enzyme (Homo sapiens, UniProt Q9Y243); assay: Akt3 inhibition assay (IMAP FP); format: biochemical;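 further: kinase reaction run 60 min at room temperature after 30 µM ATP start, phosphorylated substrate captured on IMAP beads and read as fluorescence polarization (mP)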
T3 construct: purchased Upstate Chemicon 14-502
T3 sequence (Q9Y243 whole entry): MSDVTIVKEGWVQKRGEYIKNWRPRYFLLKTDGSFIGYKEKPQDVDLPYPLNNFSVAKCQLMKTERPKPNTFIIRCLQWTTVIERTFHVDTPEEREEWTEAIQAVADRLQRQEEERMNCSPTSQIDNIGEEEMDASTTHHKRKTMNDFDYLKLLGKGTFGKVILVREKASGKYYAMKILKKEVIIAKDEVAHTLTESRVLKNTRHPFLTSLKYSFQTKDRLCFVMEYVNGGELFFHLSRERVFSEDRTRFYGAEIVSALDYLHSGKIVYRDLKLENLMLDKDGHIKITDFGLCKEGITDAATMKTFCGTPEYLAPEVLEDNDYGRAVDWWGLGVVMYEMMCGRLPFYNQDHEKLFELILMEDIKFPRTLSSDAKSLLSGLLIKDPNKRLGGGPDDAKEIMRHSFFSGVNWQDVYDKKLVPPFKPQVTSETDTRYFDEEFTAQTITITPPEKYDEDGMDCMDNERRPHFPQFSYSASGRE
Protocol: Inhibition of Akt3 and p70S6K activity was determined using the IMAP™ FP Progressive Binding Kit (Molecular Devices product number R8127). […] Following the pre-incubation, 30 μM ATP was added to initiate the reaction. After 60 minutes at RT, Molecular Devices IMAP™ binding solution was added to bind phosphorylated substrate. After 30 minutes of incubation in the presence of the IMAP™ beads the fluorescence polarization was read and the ratio was reported as mP. IC50 results were calculated using the Prism software from Graphpad. The Ki values were determined according to the following formula: Ki=IC50/(1+([ATP Challenge]/EC50 ATP)).

[10] = molecular target: T4, p70S6K human enzyme (Homo sapiens, UniProt P23443, T412E); assay: p70S6K inhibition assay (IMAP FP); format: biochemical;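 further: kinase reaction run at room temperature, phosphorylated substrate captured on IMAP beads and read as fluorescence polarization in mP, IC50 then converted to Ki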
T4 construct: purchased Upstate Chemicon 14-486
T4 sequence (P23443 1-421 T412E limits assumed): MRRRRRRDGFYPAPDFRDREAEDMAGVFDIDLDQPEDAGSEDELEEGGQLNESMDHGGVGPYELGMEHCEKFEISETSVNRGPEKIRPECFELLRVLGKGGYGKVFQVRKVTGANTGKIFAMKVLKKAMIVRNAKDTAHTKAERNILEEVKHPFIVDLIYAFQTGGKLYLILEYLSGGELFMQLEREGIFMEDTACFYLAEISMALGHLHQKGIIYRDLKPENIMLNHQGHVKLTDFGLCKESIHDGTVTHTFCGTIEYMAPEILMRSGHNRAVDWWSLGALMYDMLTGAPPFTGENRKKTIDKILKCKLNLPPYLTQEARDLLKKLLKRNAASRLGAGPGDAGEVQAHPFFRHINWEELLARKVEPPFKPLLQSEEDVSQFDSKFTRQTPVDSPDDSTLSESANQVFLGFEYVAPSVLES

[11] = Rat oral pharmacokinetics (plasma); format: in vivo; details: 20-30 μmol/kg; for half-life: mean n = 3, read-out: t½ (converted)
Protocol: Plasma (EDTA K2 anticoagulant) was collected from male, cannulated, CD Sprague Dawley rats to determine the pharmacokinetics of formulations containing compound inhibitors of Rho kinase. Each animal was dosed orally with a 4 ml/kg solution or suspension of each test compound in 10 mM acetate buffered saline, pH 4.5 at a final concentration range of 20-30 μmol/kg. Blood was collected at 0.25, 0.5, 1, 2, 4, 6, 8, and 24 hours. Plasma samples were assayed for the concentration of the test compound using an on-line, solid phase extraction LC/MS/MS analysis system.
Samples were analyzed on a QSTAR Elite, hybrid quadrupole time-of-flight mass spectrometer (Applied Biosystems, Framingham, Mass.) coupled with a Symbiosis Pharma integrated, on-line SPE-HPLC system (Spark Holland Inc., Plainsboro, N.J.). Analyst QS 2.0 software was used for instrument control, data acquisition and processing. […] Mobile Phase A consisted of 0.1% ammonium hydroxide in water and Mobile Phase B consisted of 0.1% formic acid in acetonitrile. Pharmacokinetic analyses were performed using WinNonlin software version 5.2 (Pharsight Corporation, Mountain View, Calif.).
As determined from the plasma concentration versus time curves, the time to peak and peak exposure are represented by the values Tmax and Cmax, respectively. The AUC values (nM*hr) shown were calculated as the areas under the plasma concentration versus time curves from time zero through the time of the last observable value and represent the total exposure of the compound over the course of the study. Half-life values or the amount of time required for the plasma levels of the compound to decline to half the initial value are represented as t½.

[12] = Compound concentrations in lungs of ova-sensitized, ova-challenged mice post IP, PO and IT administration; format: in vivo; details: male, Balb/c, mouse, lung, n = 9 or 10, read-out: Lung concentration (plasma corrected); for concentration at 3 h: BD model, time point 3 h; for concentration at 24 h: AI model, time point 24 h
Protocol: Additionally, compound concentrations were determined in the plasma and lungs of male, ovalbumin-sensitized, Balb/c mice from a murine model of asthma. Test compounds were formulated in water or 1% polysorbate 80 and dosed at 15 μmol/kg for intraperitoneal (IP) or oral (PO) administration or formulated for intratracheal (IT) administration and dosed at 5 μmol/kg, which directly targets the lungs. Following completion of the in vivo study, mice were euthanized and blood and plasma collected approximately 2.5-3 hours post administration of test compound for bronchodialator (BD) studies and 24 hours post administration for anti-inflamatory (AI) studies. Lungs were homogenized in Matrix A lysing tubes using a FastPrep 24 tissue and cell homogenizer (MP Biomedicals, Solon, Ohio). Both plasma samples and lung extracts were assayed for compound concentrations using an on-line, solid phase extraction LC/MS/MS system. The actual lung tissue concentrations of each compound in mouse were extrapolated from the lung and plasma concentrations, data are shown in Table 11. The results of a set of experiments using unsensitized mice and collecting only plasma 15 minutes post administration of test compounds are shown in Table 12.

[13] = Compound plasma concentrations in unsensitized mice at 15 min post administration; format: in vivo; details: mouse
[14] = test system: murine eosinophils; assay: Murine eosinophil chemotaxis induced by eotaxin; format: cell-based, mouse; details: 10 nM eotaxin challenge; FIG. 1
Protocol: Bronchoalveolar lavage was collected from ovalbumin sensitized and challenged mice in a volume of 2.5 mL lavage buffer. The lavage buffer was 0.9% saline with 10% fetal bovine serum. The pooled lavages were maintained on ice until use. The murine eosinophils were isolated using MACS cell separation (Miltenyi Biotech) by depletion of B cells and T cells by positive selection following incubation with antibody conjugated magnetic beads specific for CD45-R (B220) and CD90 (Thy 1.2), which bind B cells and T cells, respectively.
Eosinophil chemotaxis was assessed using a modified Boyden Chamber (Neuroprobe, 96-well) with a 5 μm pore membrane. The ability of the tested compounds to block chemotaxis induced by a 10 nM eotaxin challenge (mouse) or 1 nM eotaxin challenge (human) during one hour incubation at 37° C. with 5% CO2 was assessed. Chemotaxis was quantified via microscopy by counting the number of migrated cells in at least 3 view fields per treatment.

[15] = test system: human eosinophils; assay: Human eosinophil chemotaxis induced by eotaxin; format: cell-based; details: 1 nM eotaxin challenge; FIG. 2
Source text: Peripheral blood from healthy human volunteers was collected and the PMNs separated via Ficoll-paque density centrifugation followed by hypotonic lysis of the red blood cells. Subsequently, the human eosinophils were isolated from the cell suspension via StemCell Technologies Human Eosinophil Enrichment kit (Cat. No 19256) according to the manufacturer's recommendations. Briefly, unwanted cells were specifically labeled with dextran-coated magnetic nanoparticles using bispecific Tetrameric Antibody Complexes (TAC) directed against cell surface antigens on human blood cells: […] The unwanted cells are then separated from the unlabelled eosinophils using the EasySep® magnetic isolation procedure.

[16] = 10 μM ATP, read-out: ROCK2 Ki, Avg
[17] = Neutrophil, 1 h, 1 μM fMLP challenge, one hour, read-out: Chemotaxis Avg. IC50
[18] = average IC50 for inhibition of fMLP-induced neutrophil chemotaxis, read-out: Chemotaxis IC50
[19] = 30 μM ATP, Ki=IC50/(1+([ATP Challenge]/EC50 ATP)), read-out: Akt3 Ki, Avg
[20] = 30 μM ATP, Ki=IC50/(1+([ATP Challenge]/EC50 ATP)), read-out: p70S6K Ki, Avg
[21] = average Ki, read-out: p70S6K Ki
[22] = male, CD Sprague Dawley, mean n = 3
[23] = male, CD Sprague Dawley, mean n = 3, read-out: Cmax
[24] = male, CD Sprague Dawley, mean n = 3, read-out: Tmax
[25] = 15 μmol/kg, mean compound plasma concentration in mice at 15 minutes post oral administration, read-out: Mouse Oral PK

T1 sequence (Q13464 17-535 limits assumed): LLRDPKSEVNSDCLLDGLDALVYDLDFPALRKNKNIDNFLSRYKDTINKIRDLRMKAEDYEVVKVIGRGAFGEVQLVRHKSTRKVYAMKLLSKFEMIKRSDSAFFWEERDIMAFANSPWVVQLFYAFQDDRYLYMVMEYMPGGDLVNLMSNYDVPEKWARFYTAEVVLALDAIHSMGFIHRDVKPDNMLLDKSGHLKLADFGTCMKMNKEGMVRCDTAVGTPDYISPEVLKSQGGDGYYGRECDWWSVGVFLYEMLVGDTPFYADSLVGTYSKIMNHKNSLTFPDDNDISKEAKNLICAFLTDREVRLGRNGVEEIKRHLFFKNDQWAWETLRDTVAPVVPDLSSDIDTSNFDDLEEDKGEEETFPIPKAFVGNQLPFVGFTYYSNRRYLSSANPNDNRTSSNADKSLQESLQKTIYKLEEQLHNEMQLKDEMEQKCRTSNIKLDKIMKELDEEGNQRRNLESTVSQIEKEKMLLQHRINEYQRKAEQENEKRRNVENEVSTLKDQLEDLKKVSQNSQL

Row | Compound | Ki ([1]; Avg, 10 μM ATP) | Ki ([1]; average Ki) | Ki [2, 16] | IC50 [3, 17] | IC50 [3, 18] | Percent of PDGF Induced Proliferation at 1 μM Avg [8] | Percent of PDGF Induced Proliferation at 10 μM Avg [8] | Ki [9, 19] | Ki ([9]; average Ki, read-out: Akt3 Ki) | Ki [10, 20] | Ki [10, 21] | Vz_F ([11]; mean n = 3) | Ki ([2]; average Ki, read-out: ROCK2 Ki) | Airway eosinophil infiltration (eosinophils per ml of BALF) [4] | log10AUC (Penh) [5] | airway hyperreactivity to methacholine dosed on Day 32 [5] | AUC(0-t) [11, 22] | Cmax [11, 23] | Tmax [11, 24] | half-life ([11]; male, CD Sprague Dawley) | further results
1 | CS(=O)(=O)Nc1cccc(CN2CCCC(Nc3ccc4[nH]ncc4c3)C2)c1 (stereo in doubt) [Compound 1.091, (S)-N-(3-((3-(1H-indazol-5-ylamino)piperidin-1-yl)methyl)phenyl)methanesulfonamide] | 71.4 nM | 71.4 nM | 3.3 nM | 2330 nM | 2300 nM | 85.7% | 69.3% | 5390 nM | 5390 nM | 1420 nM | 1420 nM | BLQ |  |  |  |  |  |  |  |  | eosinophils (eosinophil influx, BALF) ([4]; dosed i.t. to day 30, anti-inflammatory dosing paradigm, FIG. 5): reduction of eosinophils; airway hyperreactivity ([5]; intratracheal once a day during days 27 to 30, FIG. 9): prevention of airway hyperreactivity; IL-1β % [6]: 165.5%; IL-1β levels in BALF from LPS-challenged mice [7]: reduction; Proliferation at 1 μM, % ([8]; average percent of PDGF stimulated proliferation at 1 μM of test compound): 85.7%; AUC (0-last) ([11]; mean n = 3): BLQ; Cmax ([11]; mean n = 3): BLQ; Tmax ([11]; mean n = 3): BLQ; t½ ([11]; mean n = 3): BLQ; concentration at 3 h ([12]; intraperitoneal, IP 15 μmol/kg): 117 nM; concentration at 15 min ([13]; plasma, unsensitized mice, 15 min post administration, mean n = 3, read-out: Plasma Mean Concentration): 334 nM
2 | CS(=O)(=O)Nc1cccc(CN2CC[C@@H](Nc3cccc4cnccc34)C2)c1 [Compound 2.038, (R)-N-(3-((3-(isoquinolin-5-ylamino)pyrrolidin-1-yl)methyl)phenyl)methanesulfonamide] | 28.9 nM | 28.9 nM | 6.3 nM | 734 nM | 700 nM | 58.6% | 62.7% | 2550 nM | 2550 nM | 1400 nM | 1400 nM | 22.5 L/kg | 6.3 nM | reduced | 1.8981 | prevention of airway hyperreactivity | 1.28 µM·h | 1040 nM | 30 min | 42.6 min | eotaxin-induced chemotactic response of murine eosinophils [14]: inhibited; eotaxin-induced chemotactic response of human eosinophils [15]: inhibited; concentration of IL-5 in BALF ([4]; 15 μmol/kg/oral on days 27 to 31, FIG. 6): reduced levels; concentration of Eotaxin in BALF ([4]; 15 μmol/kg/oral on days 27 to 31, FIG. 7): reduced levels; concentration of IL-13 in BALF ([4]; 15 μmol/kg/oral on days 27 to 31, FIG. 8): reduced levels; concentration at 24 h ([12]; PO 15 μmol/kg): 11 nM; concentration at 3 h ([12]; PO 15 μmol/kg): 440 nM; concentration at 15 min [13, 25]: 729 nM
3 | c1cc2cc(CN3CCC[C@@H](Nc4ccc5[nH]ncc5c4)C3)ccc2o1 [Compound 1.131, (R)-N-(1-(benzofuran-5-ylmethyl)piperidin-3-yl)-1H-indazol-5-amine] | 19.7 nM | 19.7 nM | 3.8 nM | 1590 nM | 1600 nM | 61.7% | 36.6% | 283 nM | 283 nM | 503 nM | 503 nM | 6.8 L/kg | 3.8 nM | reduced | 2.0674 | prevention of airway hyperreactivity | 10.8 µM·h | 5610 nM | 49.8 min | 93 min | concentration at 24 h ([12]; PO 15 μmol/kg): 33 nM; concentration at 3 h ([12]; PO 15 μmol/kg): 7350 nM; concentration at 15 min [13, 25]: 445 nM

Source: US20090325959A1 (priority 2008, published 2009)
